According to PubChem BioAssay (NCI):
Several values for one entry are separate records, joined by “and”; a condition that tells them apart may be missing. Equal entries are not always repeated.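 Five compound concentrations were applied to cells in 96-well plates for 48 hours; endpoints were derived by simple linear interpolation of the resulting dose-response curve. Abbreviation: GI50, concentration required for 50% inhibition of growth. TGI marks complete inhibition of growth.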

Key:
Assay in all cases: NCI anticancer screen, dose series, 48 h
SF-268 CNS = system: SF-268 CNS
UO-31 renal = system: UO-31 renal
KM12 colon = system: KM12 colon
NCI-H522 lung = system: NCI-H522 lung
LOX IMVI melanoma = system: LOX IMVI melanoma
SNB-75 CNS = system: SNB-75 CNS
EKVX NSCLC = system: EKVX NSCLC
UACC-257 melanoma = system: UACC-257 melanoma
TK-10 renal = system: TK-10 renal
SF-539 CNS = system: SF-539 CNS

SMILES	GI50 (SF-268 CNS)	TGI (SF-268 CNS)	GI50 (UO-31 renal)	TGI (UO-31 renal)	GI50 (KM12 colon)	TGI (KM12 colon)	GI50 (NCI-H522 lung)	TGI (NCI-H522 lung)	GI50 (LOX IMVI melanoma)	TGI (LOX IMVI melanoma)	GI50 (SNB-75 CNS)	TGI (SNB-75 CNS)	GI50 (EKVX NSCLC)	TGI (EKVX NSCLC)	GI50 (UACC-257 melanoma)	TGI (UACC-257 melanoma)	GI50 (TK-10 renal)	TGI (TK-10 renal)	GI50 (SF-539 CNS)	TGI (SF-539 CNS)
Oc1ccc(NC(=S)Nc2ccccc2)cc1	> 100 µM	> 100 µM	> 100 µM	> 100 µM	> 100 µM	> 100 µM	> 100 µM	> 100 µM	> 100 µM	> 100 µM	> 100 µM	> 100 µM	> 100 µM	> 100 µM	> 100 µM	> 100 µM	> 100 µM	> 100 µM	> 100 µM	> 100 µM
CCc1cccc(C(C)C)c1NC(=O)CC1Sc2ccccc2NC1=O (stereo unspecified)	–	> 100 µM	–	> 100 µM	–	> 100 µM	–	97.6 µM	–	> 100 µM	–	> 100 µM	–	> 100 µM	–	> 100 µM	–	> 100 µM	–	> 100 µM
COc1ccc(C(=O)/C=C/c2sc(Cl)nc2Cl)cc1	3.23 µM	16.4 µM	1.45 µM	2.9 µM	2.75 µM	7.54 µM	0.452 µM	4.85 µM	0.33 µM	1.36 µM	2.56 µM	8.29 µM	3.67 µM	14.8 µM	3.26 µM	12.7 µM	4.57 µM	30.3 µM	1.56 µM	4.26 µM
C[C@@H](Nc1nc(N[C@H](C)C(F)(F)F)nc(-c2cccc(Cl)n2)n1)C(F)(F)F	29.4 µM	> 100 µM	51.3 µM	> 100 µM	> 100 µM	> 100 µM	30 µM	> 100 µM	79.8 µM	> 100 µM	15.8 µM	44.3 µM	70.7 µM	> 100 µM	51.4 µM	> 100 µM	39.9 µM	> 100 µM	26.5 µM	68.6 µM
Cc1noc2cccc(O)c12	–	> 100 µM	–	> 100 µM	–	> 100 µM	–	> 100 µM	–	> 100 µM	–	> 100 µM	–	> 100 µM	–	> 100 µM	–	> 100 µM	–	> 100 µM
COC(=O)c1cc(-c2ccc3ccccc3c2)[nH]c(=O)c1C#N	–	> 100 µM	–	> 100 µM	–	> 100 µM	–	> 100 µM	–	> 100 µM	–	> 100 µM	–	> 100 µM	–	> 100 µM	–	> 100 µM	–	> 100 µM
COc1cc2c(Oc3ccc(NC(=O)C4(C(=O)Nc5ccc(F)cc5)CC4)cc3F)ccnc2cc1OCCCN1CCOCC1	0.858 µM and 1.19 µM	2.37 µM and 7.01 µM	0.984 µM and 0.654 µM	2.61 µM and 2.04 µM	0.0177 µM and 0.0189 µM	1.44 µM and 2.28 µM	0.983 µM	2.87 µM	0.713 µM	1.95 µM	0.175 µM and 0.15 µM	1.88 µM and 2.16 µM	1.16 µM and 1.93 µM	4.73 µM and > 10 µM	1.19 µM	2.78 µM	1.03 µM and 1.36 µM	2.57 µM and 4.42 µM	0.288 µM and 0.456 µM	1.65 µM and 1.67 µM
COc1ccc(-n2cc(-c3cc(OC)c(OC)c(OC)c3)nc2SCc2ccc(Cl)cc2)cc1OC	> 100 µM	> 100 µM	27.8 µM	> 100 µM	> 100 µM	> 100 µM	41.2 µM	> 100 µM	> 100 µM	> 100 µM	9.82 µM	> 100 µM	95.3 µM	> 100 µM	> 100 µM	> 100 µM	> 100 µM	> 100 µM	> 100 µM	> 100 µM
CC[C@@]1(O)C(=O)OCc2c1cc1n(c2=O)Cc2cc3cc(Cl)ccc3nc2-1	0.00403 µM	–	0.00266 µM	0.0816 µM	0.0485 µM and 0.127 µM	0.195 µM and 0.446 µM	0.00946 µM and 0.022 µM	0.298 µM and 0.843 µM	0.00191 µM	–	0.00253 µM	0.053 µM and 0.0414 µM	0.282 µM and 0.302 µM	5.73 µM and 4.9 µM	0.0389 µM and 0.0857 µM	0.953 µM and 1.11 µM	2.58 µM and 1.87 µM	> 100 µM	0.00467 µM	–
Cc1cc(S(=O)(=O)/N=C(\N)Nc2cccc(O)c2)c(SCc2ccccc2)cc1Cl	17.4 µM	69 µM	10.8 µM	27.6 µM	15.6 µM	54.4 µM	13.9 µM	41.8 µM	20.5 µM	66.8 µM	10.8 µM	26.5 µM	12.7 µM	37.2 µM	17.7 µM	35.1 µM	21.2 µM	49.5 µM	18 µM	38.8 µM
Cc1cc(=O)oc2c(C3=NN(C=O)C(c4ccccc4)C3)c(O)ccc12 (stereo unspecified)	–	> 100 µM	–	> 100 µM	–	> 100 µM	–	> 93.6 µM	–	> 100 µM	–	17.2 µM	–	> 100 µM	–	> 100 µM	–	87.9 µM	–	> 94.4 µM
NC1=NN(c2ccccc2)C(=O)C1C(=O)C(=O)Nc1ccc(Cl)cc1 (stereo unspecified)	–	> 100 µM	–	> 100 µM	–	> 100 µM	–	> 100 µM	–	> 100 µM	–	> 100 µM	–	> 100 µM	–	> 100 µM	–	> 100 µM	–	> 100 µM
C[C@H]1CCC/C=C/C2CC(OC(=O)CN(C)C)CC2C(OC(=O)CN(C)C)/C=C/C(=O)O1 (stereo partly specified)	0.484 µM	> 100 µM	0.142 µM	0.765 µM	0.198 µM	1.31 µM	0.658 µM	2.83 µM	1.16 µM	2.67 µM	0.0567 µM	–	0.558 µM	> 87.8 µM	0.342 µM	27.5 µM	0.318 µM	17.9 µM	0.531 µM	> 100 µM
C=CC(=O)N[C@@H]1CN(c2nc(Nc3cn(C)nc3OC)c3ncn(C)c3n2)C[C@H]1F	21.5 µM	> 100 µM	10.9 µM	> 100 µM	33.6 µM	> 100 µM	0.0335 µM	17.7 µM	30 µM	> 100 µM	19.4 µM	> 78 µM	0.273 µM	97.9 µM	35.8 µM	> 100 µM	0.0664 µM	23.9 µM	28.1 µM	> 100 µM
CC(C)N(C(=O)C12C3C4C1C1C2C3C41C(=O)C(C)(C)C)C(C)C (stereo unspecified)	–	> 100 µM	–	> 100 µM	–	> 100 µM	–	56.8 µM	–	> 100 µM	–	> 100 µM	–	> 100 µM	–	> 100 µM	–	> 100 µM	–	> 100 µM
